Source: patent publication US11427549B2, “Pyrimidinyloxy benzo-fused compounds as herbicides” (FMC Corporation, priority 2017, dated 2022)

Columns and labels:
[1] = test system: wheat (Triticum aestivum); experiment: Test A postemergence, wheat; type: in vivo; settings: Triticum aestivum, post-emergence, 240 h, 0 to 100 scale (0 no effect, 100 complete control), read-out: Plant response rating, Wheat; for plant injury at 31 g/ha: 31 g ai/ha; for plant injury at 125 g/ha: 125 g ai/ha
[2] = test system: ragweed (common ragweed, Ambrosia elatior); experiment: Test A postemergence, ragweed; type: in vivo; settings: Ambrosia artemisiifolia, post-emergence, 240 h, 0 to 100 scale (0 no effect, 100 complete control), read-out: Plant response rating, Ragweed; for pest or weed control at 31 g/ha: 31 g ai/ha; for pest or weed control at 125 g/ha: 125 g ai/ha
corn (Zea mays) = experiment: Test A postemergence, corn; type: in vivo; settings: Zea mays, post-emergence, 240 h, 0 to 100 scale (0 no effect, 100 complete control); for Corn plant response rating (crop injury, 0 = no effect, 100 = complete kill) at 31 g/ha: 31 g ai/ha; for Corn plant response rating (crop injury, 0 = no effect, 100 = complete kill) at 125 g/ha: 125 g ai/ha
[3] = test system: galium (catchweed bedstraw, Galium aparine); experiment: Test A postemergence, galium; type: in vivo; settings: Galium, post-emergence, 240 h, 0 to 100 scale (0 no effect, 100 complete control), read-out: Plant response rating, Galium; for pest or weed control at 31 g/ha: 31 g ai/ha; for pest or weed control at 125 g/ha: 125 g ai/ha
[4] = test system: ragweed (common ragweed, Ambrosia elatior); experiment: Test A preemergence, ragweed; type: in vivo; settings: Ambrosia artemisiifolia, pre-emergence, 240 h, 0 to 100 scale (0 no effect, 100 complete control), read-out: Plant response rating, Ragweed; for pest or weed control at 125 g/ha: 125 g ai/ha; for pest or weed control at 31 g/ha: 31 g ai/ha
[5] = test system: pigweed (Amaranthus retroflexus); experiment: Test A postemergence, pigweed; type: in vivo; settings: Amaranthus retroflexus, post-emergence, 240 h, 0 to 100 scale (0 no effect, 100 complete control), read-out: Plant response rating, Pigweed; for pest or weed control at 31 g/ha: 31 g ai/ha; for pest or weed control at 125 g/ha: 125 g ai/ha
kochia (Kochia scoparia) [6] = experiment: Test A postemergence, kochia; type: in vivo; settings: Bassia scoparia, post-emergence, 240 h, 0 to 100 scale (0 no effect, 100 complete control), read-out: Plant response rating, Kochia; for pest or weed control at 31 g/ha: 31 g ai/ha; for pest or weed control at 125 g/ha: 125 g ai/ha
[7] = test system: ryegrass, Italian (Italian ryegrass, Lolium multiflorum); experiment: Test A postemergence, ryegrass, Italian; type: in vivo; settings: Lolium multiflorum, post-emergence, 240 h, 0 to 100 scale (0 no effect, 100 complete control), read-out: Plant response rating, Ryegrass, Italian; for pest or weed control at 31 g/ha: 31 g ai/ha; for pest or weed control at 125 g/ha: 125 g ai/ha
[8] = test system: pigweed (Amaranthus retroflexus); experiment: Test A preemergence, pigweed; type: in vivo; settings: Amaranthus retroflexus, pre-emergence, 240 h, 0 to 100 scale (0 no effect, 100 complete control), read-out: Plant response rating, Pigweed; for pest or weed control at 31 g/ha: 31 g ai/ha; for pest or weed control at 125 g/ha: 125 g ai/ha
kochia (Kochia scoparia) [9] = experiment: Test A preemergence, kochia; type: in vivo; settings: Bassia scoparia, pre-emergence, 240 h, 0 to 100 scale (0 no effect, 100 complete control), read-out: Plant response rating, Kochia; for pest or weed control at 31 g/ha: 31 g ai/ha; for pest or weed control at 125 g/ha: 125 g ai/ha
[10] = test system: ryegrass, Italian (Italian ryegrass, Lolium multiflorum); experiment: Test A preemergence, ryegrass, Italian; type: in vivo; settings: Lolium multiflorum, pre-emergence, 240 h, 0 to 100 scale (0 no effect, 100 complete control), read-out: Plant response rating, Ryegrass, Italian; for pest or weed control at 31 g/ha: 31 g ai/ha; for pest or weed control at 125 g/ha: 125 g ai/ha
[11] = test system: blackgrass (Alopecurus myosuroides); experiment: Test A postemergence, blackgrass; type: in vivo; settings: Alopecurus myosuroides, post-emergence, 240 h, 0 to 100 scale (0 no effect, 100 complete control), read-out: Plant response rating, Blackgrass; for pest or weed control at 31 g/ha: 31 g ai/ha; for pest or weed control at 125 g/ha: 125 g ai/ha
[12] = test system: barnyardgrass (Echinochloa crus-galli); experiment: Test B flooded paddy test, barnyardgrass; settings: Echinochloa crus-galli, read-out: Plant response rating, Barnyardgrass (0 to 100 scale, 0 is no effect, 100 is complete control)
[13] = test system: barnyardgrass (Echinochloa crus-galli); experiment: Test A postemergence, barnyardgrass; type: in vivo; settings: Echinochloa crus-galli, post-emergence, 240 h, 0 to 100 scale (0 no effect, 100 complete control), read-out: Plant response rating, Barnyardgrass; for pest or weed control at 31 g/ha: 31 g ai/ha; for pest or weed control at 125 g/ha: 125 g ai/ha
rice (Oryza sativa) = experiment: Test B flooded paddy test, rice; settings: Oryza sativa, read-out: Plant response rating, Rice (0 to 100 scale, 0 is no effect, 100 is complete control)
[14] = test system: barnyardgrass (Echinochloa crus-galli); experiment: Test A preemergence, barnyardgrass; type: in vivo; settings: Echinochloa crus-galli, pre-emergence, 240 h, 0 to 100 scale (0 no effect, 100 complete control), read-out: Plant response rating, Barnyardgrass; for pest or weed control at 31 g/ha: 31 g ai/ha; for pest or weed control at 125 g/ha: 125 g ai/ha
[15] = test system: ducksalad (Heteranthera limosa); experiment: Test B flooded paddy test, ducksalad; settings: Heteranthera limosa, read-out: Plant response rating, Ducksalad (0 to 100 scale, 0 is no effect, 100 is complete control)

Row | SMILES | plant injury at 31 g/ha [1] | plant injury at 125 g/ha [1] | pest or weed control at 31 g/ha [2] | pest or weed control at 125 g/ha [2] | Corn plant response rating (crop injury, 0 = no effect, 100 = complete kill) at 31 g/ha (corn (Zea mays)) | Corn plant response rating (crop injury, 0 = no effect, 100 = complete kill) at 125 g/ha (corn (Zea mays)) | pest or weed control at 31 g/ha [3] | pest or weed control at 125 g/ha [3] | pest or weed control at 125 g/ha [4] | pest or weed control at 31 g/ha [5] | pest or weed control at 125 g/ha [5] | pest or weed control at 31 g/ha (kochia (Kochia scoparia) [6]) | pest or weed control at 125 g/ha (kochia (Kochia scoparia) [6]) | pest or weed control at 31 g/ha [7] | pest or weed control at 125 g/ha [7] | pest or weed control at 31 g/ha [8] | pest or weed control at 125 g/ha [8] | pest or weed control at 31 g/ha (kochia (Kochia scoparia) [9]) | pest or weed control at 125 g/ha (kochia (Kochia scoparia) [9]) | pest or weed control at 31 g/ha [10] | other results
1 | O=C1c2cccc(Oc3ncc(Cl)cn3)c2C1CCC(F)(F)F (centres unmarked) [Compound 24, 2-[(5-Chloro-2-pyrimidinyl)oxy]-8-(3,3,3-trifluoropropyl)bicyclo[4.2.0]octa-1,3,5-trien-7-one] | 0% | 0% | 0% | 20% | 10% | 20% | 20% | 80% | 0% | 20% | 70% | 20% | 50% | 0% | 20% | 0% | 30% | 20% | 60% | 0% | pest or weed control at 125 g/ha [10]: 10%; pest or weed control at 31 g/ha [11]: 30%; pest or weed control at 125 g/ha [11]: 80%; pest or weed control at 250 g/ha [12]: 25%; pest or weed control at 31 g/ha [13]: 20%; pest or weed control at 125 g/ha [13]: 70%; plant injury at 250 g/ha (rice (Oryza sativa)): 0%; pest or weed control at 31 g/ha [14]: 0%; pest or weed control at 125 g/ha [14]: 50%; pest or weed control at 250 g/ha [15]: 90%
2 | O=C1OCC(CCC(F)(F)F)c2c(Oc3ncc(Cl)cn3)cccc21 (centres unmarked) [Compound 25, 5-[(5-Chloro-2-pyrimidinyl)oxy]-3,4-dihydro-4-(3,3,3-trifluoropropyl)-1H-2-benzopyran-1-one] | 0% | 10% | 0% | 30% | 20% | 20% | 30% | 40% | 0% | 30% | 50% | 30% | 60% | 0% | 0% | 10% | 100% | 0% | 70% | 0% | pest or weed control at 31 g/ha [4]: 0%; pest or weed control at 125 g/ha [10]: 0%; pest or weed control at 31 g/ha [11]: 20%; pest or weed control at 125 g/ha [11]: 60%; pest or weed control at 250 g/ha [12]: 0%; pest or weed control at 31 g/ha [13]: 0%; pest or weed control at 125 g/ha [13]: 10%; plant injury at 250 g/ha (rice (Oryza sativa)): 0%; pest or weed control at 31 g/ha [14]: 0%; pest or weed control at 125 g/ha [14]: 30%; pest or weed control at 250 g/ha [15]: 0%
3 | FC(F)(F)CCCC1OCCc2cccc(Oc3ncc(Cl)cn3)c21 (centres unmarked) [Compound 27, 5-Chloro-2-[[3,4-dihydro-1-(4,4,4-trifluorobutyl)-1H-2-benzopyran-8-yl]oxy]pyrimidine] | 0% | 10% | 0% | 10% | 20% | 30% | 40% | 80% | 0% | 50% | 70% | 10% | 10% | 10% | 40% | 30% | 50% | 0% | 0% | 0% | pest or weed control at 31 g/ha [4]: 0%; pest or weed control at 125 g/ha [10]: 20%; pest or weed control at 31 g/ha [11]: 20%; pest or weed control at 125 g/ha [11]: 40%; pest or weed control at 250 g/ha [12]: 0%; pest or weed control at 31 g/ha [13]: 20%; pest or weed control at 125 g/ha [13]: 30%; plant injury at 250 g/ha (rice (Oryza sativa)): 0%; pest or weed control at 31 g/ha [14]: 10%; pest or weed control at 125 g/ha [14]: 80%; pest or weed control at 250 g/ha [15]: 95%
